Where two headings read alike, the source gives them in different places.

For test [1], the target named is T1, glutathione-S-transferase (GST) tagged LXRbeta LBD (ligand binding domain) (Homo sapiens, UniProt P55055).
T1 construct: purchased Invitrogen pv4658
T1 sequence (P55055 222-460 limits assumed): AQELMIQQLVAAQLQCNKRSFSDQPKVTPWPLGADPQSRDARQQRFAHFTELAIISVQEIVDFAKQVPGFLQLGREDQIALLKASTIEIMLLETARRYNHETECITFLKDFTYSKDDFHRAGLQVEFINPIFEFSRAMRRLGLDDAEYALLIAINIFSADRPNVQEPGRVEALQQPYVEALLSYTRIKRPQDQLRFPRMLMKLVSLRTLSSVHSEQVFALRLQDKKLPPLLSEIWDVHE
The experiment in a line: LanthaScreen TR-FRET Liver X Receptor Coactivator Assay, LXR beta. Type of test: biochemical. Conditions: for EC50: LXR beta IP, potency (Inflection Point), compound-induced co-activator recruitment, TR-FRET; for Emax: read-out: LXR beta actiivty at max dose, efficacy (% Emax) in relation to reference dual agonist T0901317. The gist of the method:
(§1)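 LXR alpha- or beta-LBD was added to test compounds, then a mix of fluorescein-labelled coactivator peptide and terbium anti-GST antibody. After room-temperature incubation, TR-FRET was read on a filter-based reader.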

For test [2], the target named is T2, glutathione-S-transferase (GST) tagged LXRalpha LBD (ligand binding domain) (Homo sapiens, UniProt Q13133).
T2 construct: purchased Invitrogen pv4655
T2 sequence (Q13133 209-447 limits assumed): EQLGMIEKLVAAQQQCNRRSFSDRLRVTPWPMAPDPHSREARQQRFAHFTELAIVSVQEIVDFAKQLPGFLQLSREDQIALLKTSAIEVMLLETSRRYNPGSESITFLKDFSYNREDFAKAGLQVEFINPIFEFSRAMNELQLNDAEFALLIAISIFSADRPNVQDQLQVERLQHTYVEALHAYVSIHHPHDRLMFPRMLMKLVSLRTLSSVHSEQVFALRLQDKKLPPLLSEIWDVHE
Nature of the test: biochemical. The procedure, abridged:
as §1

The mark [3] stands for this setting: efficacy (% Emax) in relation to reference dual agonist T0901317, read-out: LXR alpha actiivty at max dose.
[4] abbreviates: potency (Inflection Point), compound-induced co-activator recruitment, TR-FRET, read-out: LXR alpha IP.
[5] abbreviates: read-out: LXR alpha actiivty at max dose, efficacy (% Emax) in relation to reference dual agonist T0901317.

As for `CN(C)C(=O)c1ccc(OCC(F)CCC2CCN(C(=O)C(O)(c3ccccc3)C(F)(F)F)CC2)cc1Cl` (single isomer, unassigned) [Example 20-1, 2-chloro-4-(2-fluoro-4-(1-((R or S)-3,3,3-trifluoro-2-hydroxy-2-phenylpropanoyl)piperidin-4-yl)butoxy)-N,N-dimethylbenzamide], the EC50 in test [1] worked out at 80 nM; in test [2] (setting [4]), 1430 nM. Besides, the figures for the Emax in test [1] and in test [2] (setting [3]) were 72% and 26%, respectively.

Take `CN(C)C(=O)c1ccc(OC[C@@H](F)CCC2CCN(C(=O)[C@](O)(c3ccccc3)C(F)(F)F)CC2)cc1Cl` (single isomer, unassigned) [Example 20-2, 2-chloro-4-((S or R)-2-fluoro-4-(1-((R or S)-3,3,3-trifluoro-2-hydroxy-2-phenylpropanoyl)piperidin-4-yl)butoxy)-N,N-dimethylbenzamide]: the EC50 in test [1] came out at 71 nM; in test [2] (setting [4]), 1490 nM. Further, the Emax in test [1] was 73%; in test [2] (setting [5]) it was 25%.

Regarding `COc1cccc(C(O)(C(=O)N2CCC(C(F)CCCOc3ccc(C(=O)N(C)C)c(Cl)c3)CC2)C(F)(F)F)c1` (single isomer, unassigned) [Example 21-1, 2-chloro-4-(4-fluoro-4-(1-((R or S)-3,3,3-trifluoro-2-hydroxy-2-(3-methoxyphenyl)propanoyl)piperidin-4-yl)butoxy)-N,N-dimethylbenzamide], the EC50 in test [1] amounted to 9 nM; in test [2] (setting [4]), 422 nM. For the same compound, the Emax in test [1] was 75%; in test [2] (setting [3]), 27%.

On to `COc1cccc(C(O)(C(=O)N2CCC(C(F)(F)CCCOc3ccc(C(=O)N(C)C)c(Cl)c3)CC2)C(F)(F)F)c1` (single isomer, unassigned) [Example 22-1, (R or S)-2-chloro-4-(4,4-difluoro-4-(1-(3,3,3-trifluoro-2-hydroxy-2-(3-methoxyphenyl)propanoyl)piperidin-4-yl)butoxy)-N,N-dimethylbenzamide], for which the EC50 in test [1] was 7 nM; in test [2] (setting [4]), 212 nM. For the same compound, the Emax in test [1] was determined as 67%; in test [2] (setting [3]), 32%.

Consider `CC(CCC1CCN(C(=O)[C@](O)(c2ccccc2)C(F)(F)F)CC1)COc1ccc(C(=O)N(C)C)c(Cl)c1` (single isomer, unassigned) [Example 23-1, 2-chloro-N,N-dimethyl-4-((R or S)-2-methyl-4-(1-((R or S)-3,3,3-trifluoro-2-hydroxy-2-phenylpropanoyl)piperidin-4-yl)butoxy)benzamide], for which the results for the EC50 in test [1] and in test [2] (setting [4]) were 24 nM and 436 nM, respectively. For the same compound, the values for the Emax in test [1] and in test [2] (setting [3]) were 74% and 23%, respectively.

`COc1cccc([C@](O)(C(=O)N2CCC(CC[C@H](C)COc3ccc(C(=O)N(C)C)c(Cl)c3)CC2)C(F)(F)F)c1` (single isomer, unassigned) [Example 23-2, 2-chloro-N,N-dimethyl-4-((S or R)-2-methyl-4-(1-((S or R)-3,3,3-trifluoro-2-hydroxy-2-(3-methoxyphenyl)propanoyl)piperidin-4-yl)butoxy)benzamide]: in test [1], the EC50 amounted to 19 nM and the Emax worked out at 53%. The “LXR alpha IP” value in test [2] (potency (Inflection Point), compound-induced co-activator recruitment, TR-FRET) is listed as “No IP”. In test [2] (setting [5]), the Emax stood at 0%.

With `C[C@@H](CCC1CCN(C(=O)[C@](O)(c2cc(F)cc(F)c2)C(F)(F)F)CC1)COc1ccc(C(=O)N(C)C)c(Cl)c1` (single isomer, unassigned) [Example 23-3, 2-chloro-4-((S or R)-4-(1-((R or S)-2-(3,5-difluorophenyl)-3,3,3-trifluoro-2-hydroxypropanoyl)piperidin-4-yl)-2-methylbutoxy)-N,N-dimethylbenzamide], the EC50 was found to be 12 nM in test [1] and 150 nM in test [2] (LXR alpha IP, potency (Inflection Point), compound-induced co-activator recruitment, TR-FRET). The Emax was 89% in test [1] and 42% in test [2] (setting [5]).

The values are drawn from patent US11655216B2 (priority 2016, dated 2023).
